Consider one molecule from article PMC6372683, “Mechanism of the natural product moracin-O derived MO-460 and its targeting protein hnRNPA2B1 on HIF-1α inhibition” (Experimental & Molecular Medicine, 2019).

Values joined by “and” are separate entries in the source; they are usually repeats but may differ in a detail not shown here. Equal entries are not always repeated. “Also recorded” adds a separate entry of the source.

Holding throughout (format): cell-based, human
Test [1] relates to HIF-1α in Hep3B cells. As to the kind of experiment: HIF-1α protein accumulation under CoCl2 mimetic hypoxia (immunostaining and western blotting). (In general: A western blot detects proteins with antibodies after separation by electrophoresis.)
In test [2] the test system is HIF-1α mRNA in Hep3B cells. As to the kind of experiment: HIF-1α mRNA level by qRT-PCR / RT-PCR. How it is done:
Cells were lysed with TRIzol (Invitrogen) and proteins were extracted with chloroform. RNAs were precipitated with isopropanol and washed with 75% ethanol diluted with DEPC-treated water. Purity and concentration of RNA was analyzed using nano drop. The cDNA was synthesized from total RNA in a reaction mixture containing 5 × reaction buffer (250 mM Tris-HCl pH 8.3, 375 mM KCl, 15 mM MgCl2, 50 mM DTT), 50 μg/mL Oligo-dT, 10 mM dNTP, and 50,000 U M-MLV reverse transcriptase (Promega, Madison, WI). Amplified PCR products obtained with β actin-specific primers served as internal controls. The sequences of the primers used for this study are listed in Supplementary Materials and Methods 5 and 6.
On the technique in general: Quantitative PCR measures a nucleic acid by following its amplification.

For test [3], the system named is hnRNPA2B1 protein and HIF-1α mRNA complex. Kind of test: RNA-immunoprecipitation of hnRNPA2B1 with HIF-1α mRNA. The following applies: Hep3B cells, mimetic hypoxia, 50 μM, 24 h. As to the method: Hep3B cells were cultured at 37 °C in a 5% atmospheric concentration of CO2 and 200 μM of CoCl2 in the presence or absence of MO-460 (50 μM) and the cells harvested after 24 h. Total lysates of Hep3B were prepared in nuclear isolation buffer [128 mM sucrose, 40 mM Tris-HCl pH 7.5, 20 mM MgCl2, 4% Triton-X100]. After clarifying by centrifugation at 2500× g for 15 min at 4 °C the nuclear pellet was resuspended in RIP buffer [150 mM KCl, 25 mM Tris-HCl pH 7.5, 5 mM EDTA, 0.5 mM DTT, 0.5% Triton-X100, and protease inhibitor cocktail], and then incubated with 4 μg of either control IgG or the anti-hnRNPA2B1 antibody. After 1.5 h of incubation, protein-G agarose beads (Santa Cruz Biotechnologies, Santa Cruz, CA) were added and then precipitated. RNAs were purified from 90% of the samples. Eluted RNAs were complemented by reverse transcriptase with random primers. cDNAs were used in the subsequent PCR reactions with the indicated primer sets. The resulting PCR products were separated on a 1.5% agarose gel. The other 10% of the samples from which RNA was not collected were separated by SDS-PAGE and then immunoblotted with anti-hnRNPA2B1 antibody.

On to `CC(C)(O)[C@H]1Cc2cc3cc(-c4ccc(O)cc4)oc3cc2O1` [MO-460, (R)-4-[6-(1-Hydroxy-1-methylethyl)-5,6-dihydro-benzo[1,2-b;5,4-b’]difuran-2-yl]-phenol], for which, in test [1] (CoCl2 mimetic hypoxia, 24 h), the “accumulation of HIF-1α protein” value was “inhibits the accumulation of HIF-1α protein; also recorded: reduced the level of HIF-1α protein in a concentration-dependent manner; also recorded: completely eliminated the accumulation of HIF-1α”. Besides, the “amount of hnRNPA2B1” value in test [1] (western blot) is given as “no effect”. In addition, the “reduction in HIF-1α mRNA level” value in test [2] (50 µM, mimetic hypoxia, qRT-PCR) is ~ 10% and < 10%. Moreover, in test [2] (normoxic condition), the “effect on HIF-1α transcript level” value is “no observed effect; also recorded: did not affect HIF-1α transcript levels”. The “interaction between hnRNPA2B1 and HIF-1α mRNA” value in test [3] is “abolished”.
